Drawing on PubChem BioAssay (NCI), this text covers GI50 and TGI for 7 molecules.

Assay in all cases: NCI tumour cell line growth inhibition, 48 h
The test system of experiment [1] is HCC-2998 colon.
The subject of experiment [2] is U251 CNS.
Experiment [3] concerns CAKI-1 renal.
The subject of experiment [4] is OVCAR-3 ovarian.
For experiment [5], the system named is NCI-H522 lung.
Experiment [6] concerns UO-31 renal.
In experiment [7] the test system is MOLT-4 leukemia.
Experiment [8] has as its system DU-145 prostate.
The test system of experiment [9] is OVCAR-8 ovarian.
Experiment [10] has as its system OVCAR-4 ovarian.

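Dose response: 5 concentrations. Exposure: 48 h. Format: 96-well plates. Endpoint: linear interpolation; highest concentration if not reached. GI50 = concentration required for 50% inhibition of growth. TGI is the concentration that stops growth completely.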

Turning to `O=C1CSC(c2ccccc2Cl)N1c1nnc(Cn2cnnc2)o1` (stereo not given), the GI50 in experiment [1] is 12.3 µM; in [2], 4.58 µM; in experiment [3], 11.4 µM; in experiment [4] it was 3.4 µM; in experiment [5] it was 10.4 µM; in [6], 30.8 µM. The GI50 in experiment [7] is 7.27 µM; in experiment [8], 19.7 µM; in experiment [9], 30.2 µM; in experiment [10], 23.9 µM. In addition, the TGI in experiment [1] was 27.2 µM; in [2], 18.9 µM; in experiment [3] it was greater than 100 µM; in experiment [4] it was 10.7 µM; in [5], 38 µM; in experiment [6], greater than 100 µM. The TGI is 26.1 µM in [7], 44.3 µM in experiment [8], greater than 100 µM in experiment [9] and greater than 100 µM in [10].

Consider `Cc1ccc([N+](=O)[O-])c2c(NCCNC(=O)c3cc(C(=O)NCCNc4ccnc5c(C)ccc([N+](=O)[O-])c45)n(C)n3)ccnc12`, for which the TGI in experiment [1], in [2], in [3], in [4], in [5] and in experiment [6] was greater than 100 µM in each case. Moreover, the TGI in experiment [7] is greater than 46.4 µM; in [8], greater than 100 µM; in experiment [9] it was greater than 100 µM; in [10] it was greater than 73.3 µM.

With `COc1ccc(-c2ccc(/C=N/n3c(COc4ccccc4Cl)nn(CN4CCOCC4)c3=S)o2)c([N+](=O)[O-])c1`, the GI50 in experiment [1] was 24.1 µM; in experiment [2], 26.1 µM; in experiment [3], 21.3 µM; in experiment [4], 16.7 µM; in experiment [5], 38.9 µM; in experiment [6] it was 37.1 µM. Besides, the GI50 was 19.3 µM in experiment [7], 34.1 µM in experiment [8], 39.4 µM in [9] and 35.1 µM in [10]. The TGI in experiment [1] was 56.8 µM; in [2] it was greater than 100 µM; in experiment [3] it was 56.3 µM; in experiment [4], 52.4 µM; in experiment [5], greater than 100 µM; in experiment [6] it was greater than 100 µM. Also, the TGI is 51.7 µM in experiment [7], greater than 100 µM in experiment [8], greater than 100 µM in experiment [9] and greater than 100 µM in experiment [10].

Regarding `O=C1/C(=C/c2ccc(F)cc2)CN(C(=O)CCN2CCC(=NO)CC2)C/C1=C\c1ccc(F)cc1`, the GI50 in [1] is 1.5 µM; in experiment [2], 0.63 µM; in experiment [3] it was 1.57 µM; in experiment [4], 1.14 µM; in experiment [5] it was 1.24 µM; in experiment [6], 1.37 µM. For the same molecule, the GI50 is 0.699 µM in experiment [7], 2.26 µM in experiment [8], 1.3 µM in experiment [9] and 2.34 µM in [10]. For the same molecule, the TGI in experiment [1] turned out to be 3.08 µM; in experiment [2] it was 2.09 µM; in experiment [3], 3.92 µM; in experiment [4], 3.02 µM; in [5] it was 3.53 µM; in [6], 2.84 µM. For the same molecule, the TGI in [7] came out at 7.97 µM; in experiment [8], 5.17 µM; in experiment [9], 5.58 µM; in experiment [10], 5.14 µM.

`COc1cc(C2C3=C(COC3=O)N(CCO)c3cc4c(cc32)OCCO4)cc(OC)c1OC` (stereo not given): the GI50 in experiment [1] is 0.127 µM; in experiment [2], 0.226 µM; in [3], 2.11 µM; in experiment [4], 0.135 µM; in experiment [5], 0.0626 µM; in experiment [6], 1.82 µM. For the same molecule, the GI50 was 0.242 µM in experiment [7], 0.345 µM in [8], 0.24 µM in [9] and 0.416 µM in experiment [10]. The TGI in [1] was 0.335 µM; in [2], greater than 50 µM; in experiment [3] it was greater than 50 µM; in experiment [4], 0.315 µM; in experiment [5], 0.185 µM; in experiment [6] it was greater than 50 µM. For the same molecule, the TGI in [7] is greater than 11.4 µM; in [8], 0.943 µM; in experiment [9], greater than 50 µM; in experiment [10], greater than 50 µM.

As for `CC/C(Cc1ccccc1)=C(\c1ccc(OCCN2CCCC2)cc1)c1ccc(OC(=O)NCc2ccccc2)cc1`, the GI50 in [1] is 1.51 µM; in experiment [2] it was 1.77 µM; in experiment [3] it was 1.63 µM; in experiment [4], 1.86 µM; in [5], 1.99 µM; in experiment [6], 1.61 µM. Also, the GI50 was 2.23 µM in experiment [7], 2.14 µM in experiment [8], 1.87 µM in experiment [9] and 1.86 µM in experiment [10]. The TGI in experiment [1] stood at 2.94 µM; in experiment [2] it was 3.17 µM; in experiment [3] it was 3.02 µM; in [4] it was 3.56 µM; in [5] it was 4.14 µM; in [6], 3 µM. Besides, the TGI in experiment [7] amounted to 5.66 µM; in experiment [8], 4.7 µM; in experiment [9], 3.67 µM; in [10], 3.85 µM.

As to `O=C(CN(/C=C/C(=O)C(F)(F)F)c1ccc(Cl)cc1)c1ccc(Cl)c(Cl)c1`, the GI50 was 12.6 µM in experiment [1]; 5.37 µM in experiment [2]; 3.61 µM in experiment [3]; 3.23 µM in [4]; 2.88 µM in experiment [5]; 5.65 µM in [6]. The GI50 is 2.57 µM in [7], 16.7 µM in [8], 10.7 µM in [9] and 8.71 µM in experiment [10]. Further, the TGI in experiment [1] came to 26.2 µM; in experiment [2], 16.8 µM; in experiment [3], 12.7 µM; in [4], 11.3 µM; in experiment [5] it was 8.81 µM; in [6], 18.8 µM. The TGI in experiment [7] amounted to 10.5 µM; in experiment [8] it was 33.4 µM; in experiment [9], 28.8 µM; in [10], 28.1 µM.
